In ChEMBL document CHEMBL5154702, “Synthesis and biological evaluation of aminobenzamides containing purine moiety as class I histone deacetylases inhibitors” (Bioorg Med Chem, 2022):
Activity calls are given as the source filed them. No cut-off for these calls is given here.

Assays:
[1] = target: T1, Protein deacetylase HDAC6 (Homo sapiens, UniProt Q9UBN7); assay: Inhibition of recombinant human N-terminal GST-tagged HDAC6 (1 to 1215 residues) expressed in Sf9 insect cells using fluorogenic HDAC substrate 3 measured after 30 mins by fluorimetry
T1 sequence (Q9UBN7 whole entry): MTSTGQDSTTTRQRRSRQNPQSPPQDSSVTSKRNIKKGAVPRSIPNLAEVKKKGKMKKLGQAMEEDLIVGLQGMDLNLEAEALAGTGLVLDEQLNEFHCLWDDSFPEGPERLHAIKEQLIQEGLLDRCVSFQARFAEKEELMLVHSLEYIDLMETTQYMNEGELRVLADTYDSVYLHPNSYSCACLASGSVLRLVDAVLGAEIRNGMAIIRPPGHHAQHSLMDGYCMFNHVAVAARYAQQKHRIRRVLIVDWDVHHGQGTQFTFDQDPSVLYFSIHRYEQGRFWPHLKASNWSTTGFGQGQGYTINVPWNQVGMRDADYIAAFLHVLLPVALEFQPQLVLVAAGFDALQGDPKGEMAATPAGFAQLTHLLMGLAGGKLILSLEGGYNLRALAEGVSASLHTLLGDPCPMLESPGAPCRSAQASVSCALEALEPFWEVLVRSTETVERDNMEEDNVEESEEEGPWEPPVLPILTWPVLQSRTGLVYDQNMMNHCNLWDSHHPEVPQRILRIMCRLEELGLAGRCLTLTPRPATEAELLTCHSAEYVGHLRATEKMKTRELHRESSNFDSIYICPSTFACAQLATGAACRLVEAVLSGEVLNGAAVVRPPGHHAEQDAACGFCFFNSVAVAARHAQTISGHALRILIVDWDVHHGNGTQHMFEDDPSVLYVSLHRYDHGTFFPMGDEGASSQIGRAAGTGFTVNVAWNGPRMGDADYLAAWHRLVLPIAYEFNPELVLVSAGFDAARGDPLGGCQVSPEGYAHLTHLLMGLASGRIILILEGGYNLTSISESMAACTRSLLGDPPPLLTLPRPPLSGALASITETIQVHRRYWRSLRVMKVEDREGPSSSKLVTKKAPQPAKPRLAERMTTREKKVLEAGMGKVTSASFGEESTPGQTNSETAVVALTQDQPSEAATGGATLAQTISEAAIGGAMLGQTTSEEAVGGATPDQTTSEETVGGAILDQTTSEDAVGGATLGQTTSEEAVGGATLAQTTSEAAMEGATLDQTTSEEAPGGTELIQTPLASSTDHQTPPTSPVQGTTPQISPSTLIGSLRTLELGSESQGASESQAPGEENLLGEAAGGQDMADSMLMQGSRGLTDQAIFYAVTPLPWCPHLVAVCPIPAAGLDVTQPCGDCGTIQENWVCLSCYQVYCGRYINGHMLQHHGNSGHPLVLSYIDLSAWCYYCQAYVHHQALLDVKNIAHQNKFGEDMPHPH

[2] = target: Histone deacetylase (Homo sapiens) (UniProt Q13547+O15379+Q9UBN7+Q92769+Q9UQL6+Q8WUI4+Q9BY41+Q96DB2+P56524+Q9UKV0+Q969S8); assay: Potency index, ratio of SAHA IC50 to test compound IC50 for inhibition of HDAC in human HeLa cell nuclear extracts using color de Lys as substrate
Histone deacetylase 4 = Histone deacetylase 4 (Homo sapiens, UniProt P56524); assay: Inhibition of recombinant human N-terminal GST-fused/C-terminal His-tagged HDAC4 (627 to 1084 residues) expressed in baculovirus infected Sf9 insect cells using fluorogenic HDAC class 2a substrate measured after 30 mins by fluorimetry
Histone deacetylase 4, sequence (P56524 whole entry, the tested form may be a part): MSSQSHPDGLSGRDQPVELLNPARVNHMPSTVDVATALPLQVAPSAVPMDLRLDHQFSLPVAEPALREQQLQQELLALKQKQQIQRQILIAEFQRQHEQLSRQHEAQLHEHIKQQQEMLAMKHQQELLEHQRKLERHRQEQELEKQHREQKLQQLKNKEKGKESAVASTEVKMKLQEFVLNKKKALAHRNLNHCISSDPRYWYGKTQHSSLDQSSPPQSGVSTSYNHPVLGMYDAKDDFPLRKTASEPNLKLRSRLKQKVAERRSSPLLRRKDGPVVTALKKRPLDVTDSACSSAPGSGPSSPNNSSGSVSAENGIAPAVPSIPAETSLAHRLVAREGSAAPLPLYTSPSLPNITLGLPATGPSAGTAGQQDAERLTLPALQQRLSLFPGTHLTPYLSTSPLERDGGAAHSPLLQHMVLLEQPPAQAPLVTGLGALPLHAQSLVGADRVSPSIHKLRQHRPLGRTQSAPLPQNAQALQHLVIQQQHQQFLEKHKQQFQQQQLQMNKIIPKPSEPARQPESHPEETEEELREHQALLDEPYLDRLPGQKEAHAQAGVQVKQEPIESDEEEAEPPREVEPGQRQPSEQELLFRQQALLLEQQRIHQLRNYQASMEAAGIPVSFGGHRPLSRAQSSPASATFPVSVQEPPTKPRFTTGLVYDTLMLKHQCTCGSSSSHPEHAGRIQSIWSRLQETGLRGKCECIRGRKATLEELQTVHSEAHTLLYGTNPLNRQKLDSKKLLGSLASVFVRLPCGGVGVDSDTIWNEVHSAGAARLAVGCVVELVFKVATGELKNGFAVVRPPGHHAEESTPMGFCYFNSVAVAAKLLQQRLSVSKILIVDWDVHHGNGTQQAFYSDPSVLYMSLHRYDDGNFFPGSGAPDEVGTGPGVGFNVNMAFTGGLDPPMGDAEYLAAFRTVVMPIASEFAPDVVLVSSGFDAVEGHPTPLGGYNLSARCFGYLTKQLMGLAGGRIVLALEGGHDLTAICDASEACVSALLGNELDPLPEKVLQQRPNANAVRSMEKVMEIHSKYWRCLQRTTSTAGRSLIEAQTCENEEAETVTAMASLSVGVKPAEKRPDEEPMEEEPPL

A549 = assay: cells; format: functional, cell-based; conditions: Homo sapiens, A549, 48 h
MDA-MB-231 = assay: Potency index, ratio of MS-275 IC50 to test compound IC50 for antiproliferative activity against human MDA-MB-231 cells; format: functional
HCT-116 [3] = assay: Induction of cell morphological changes in human HCT-116 cells assessed as […] deformation at 0.5 to 5 uM measured after 24 hrs by phase contrast microscopy; format: functional, cell-based; conditions: dose 0.5-5 µM
HCT-116 [4] = assay: Induction of cell morphological changes in human HCT-116 cells assessed as cell vacuolization at 0.5 to 5 uM measured after 24 hrs by phase contrast microscopy; format: functional, cell-based; conditions: dose 0.5-5 µM
HCT-116 [5] = assay: Induction of cell morphological changes in human HCT-116 cells assessed as chromatin condensation at 0.5 to 5 uM measured after 24 hrs by Hoechst 33258 staining based fluorescence microscopy; format: functional; conditions: dose 0.5-5 µM
HCT-116 [6] = assay: Induction of apoptosis in human HCT-116 cells assessed as viable cells at 0.5 uM measured after 24 hrs by Annexin V-FITC/propidium iodide staining based flow cytometry (reference value: 87.3%); format: functional; conditions: read-out: Activity
HCT-116 [7] = assay: Induction of apoptosis in human HCT-116 cells assessed as early apoptotic cells at 1 uM measured after 24 hrs by Annexin V-FITC/propidium iodide staining based flow cytometry (reference value: 1.87%); format: functional
HCT-116 [8] = assay: Induction of apoptosis in human HCT-116 cells assessed as early apoptotic cells at 5 uM measured after 24 hrs by Annexin V-FITC/propidium iodide staining based flow cytometry (reference value: 1.87%); format: functional
HCT-116 [9] = assay: Cell cycle arrest in human HCT-116 cells assessed as accumulation of cells at G0/G1 phase at 5 uM measured after 24 hrs by propidium iodide staining based flow cytometry (reference value: 58.05%); format: functional
HCT-116 [10] = assay: Cell cycle arrest in human HCT-116 cells assessed as accumulation of cells at G2/M phase at 5 uM measured after 24 hrs by propidium iodide staining based flow cytometry (reference value: 22.74%); format: functional
HCT-116 [11] = assay: Cell cycle arrest in human HCT-116 cells assessed as accumulation of cells at G0/G1 phase at 10 uM measured after 6 hrs by propidium iodide staining based flow cytometry (reference value: 58.05%); format: functional
HCT-116 [12] = assay: Cell cycle arrest in human HCT-116 cells assessed as accumulation of cells at G0/G1 phase at 10 uM measured after 12 hrs by propidium iodide staining based flow cytometry (reference value: 58.05%); format: functional
HCT-116 [13] = assay: Cell cycle arrest in human HCT-116 cells assessed as down regulation of cyclin D1 expression measured after 24 hrs by Western blot analysis; format: functional, cell-based; conditions: dose 0.1-10 µM, DDE = dose-dependent effect
HCT-116 [14] = assay: Cell cycle arrest in human HCT-116 cells assessed as up regulation of p21 expression measured after 24 hrs by Western blot analysis; format: functional, cell-based; conditions: dose 0.1-10 µM, DDE = dose-dependent effect
HCT-116 [15] = assay: Cell cycle arrest in human HCT-116 cells assessed as up regulation of p21 expression at 5 uM by Western blot analysis; format: functional, cell-based; conditions: time 6-48 hrs, TDE = time-dependent effect
[16] = Half life in dog liver microsomes at 13.8 uM by HPLC analysis; format: ADME, Canis lupus familiaris, Microsome

With `CCCCNc1nc(Cl)nc2c1ncn2Cc1ccc(C(=O)Nc2ccccc2N)cc1` the IC50 [1] was 34.2 µM, the Ratio IC50 [2] was 4 and the IC50 (Histone deacetylase 4) was > 100 µM. For the same compound, the IC50 (A549) was 1.65 µM, the “Ratio IC50” value (MDA-MB-231) was 4 and the Activity (HCT-116 [3]) was “Active”. The Activity (HCT-116 [4]) was “Active”, the Activity (HCT-116 [5]) was “Active” and the viability at 0.5 µM (HCT-116 [6]) was 64.3%. The Activity (HCT-116 [7]) was 49.4%, the Activity (HCT-116 [8]) was 70.6% and the Activity (HCT-116 [9]) was 67.96%. The Activity (HCT-116 [10]) was 14.39%, the Activity (HCT-116 [11]) was 65.62% and the Activity (HCT-116 [12]) was 71.11%. For the same compound, the Activity (HCT-116 [13]) was “Dde”, the Activity (HCT-116 [14]) was “Dde” and the Activity (HCT-116 [15]) was “Tde”. For the same compound, the half-life at 13.8 µM [16] was 3.73 h.
